These are literature values, as cited in patent publication US6602892B1, “Methods for nicotine replacement dosage determination” (priority 1993, dated 2003).

For this series the following is noted: in vivo.

For `CN1C(=O)CC[C@H]1c1cccnc1` [cotinine], the half life result is recorded as “about 20 hours”.
On to `CN1CCCC1c1cccnc1` (centres unmarked) [nicotine], for which the half life result is given as “two”.
